Experimental data published in patent publication US20050272040A1, “Method for increasing synaptic growth or plasticity” (priority 2002, published 2005).

System: hippocampal cells
Assay: Real-time RT-PCR of genes induced by neurotrophin treatment of hippocampal cultures
Format: cell-based, rat
Conditions: 50 ng/mL, RT-PCR vs control, average ± standard error
Procedure: The molecular genetics underlying BDNF-evoked plasticity were examined by expression profiling using cDNA microarrays on a population of hippocampal cells in vitro. Synaptic effects of BDNF are observed within 20 minutes of exposure (Levine et al. (1996) supra; Lessmann and Heumann (1998) supra; Schinder et al. (2000) supra). A 3-hour BDNF treatment has been used to identify several genes with roles in synaptic plasticity (Thakker-Varia et al. (2001) supra). Consequently, to reveal immediate, as well as downstream transcriptional changes, both acute (20 minutes) and longer treatment (3 hours) with BDNF were used herein. […] Two independent Atlas arrays were performed using RNA from hippocampal cells treated for either 20 minutes or 3 hours of BDNF (50 ng/mL) and control sister cultures.
Of those genes selected, the regulation of 7% at 20 minutes and 40% at 3 hours were validated, although the magnitude of regulation was not always identical to that observed on the microarray. To focus on genes specifically involved in plasticity, a related neurotrophin, nerve growth factor (NGF), not inducing synaptic plasticity (Levine et al. (1996) supra), served as a control.
Time-mated pregnant rats were sacrificed by CO2 asphyxiation in accordance with institutional guidelines for care and use of animals. Fetuses were removed by caesarean section and transferred to a sterile petri dish with phosphate-buffered saline. Fetal hippocampi were dissected from surrounding brain tissue and meninges were completely removed. Low-density cultures of dissociated embryonic day 18 rat hippocampi (Sprague Dawley from Hilltop Laboratories, Scottsdale, Pa.) were prepared using standard methods (Thakker-Varia et al. (2001) supra). Briefly, pooled tissue from each litter was mechanically dissociated in nutrient medium containing 7.5% fetal bovine serum and plated on poly-D-lysine-coated culture dishes at 350,000 cells/dish. Cultures were maintained in serum-free medium (Thakker-Varia et al., 2001) for 10-14 days and contained pure neurons.
Total cellular RNA was prepared from neuronal cultures treated with either BDNF (50 ng/ml) or vehicle (water) for either 20 min or 3 hr by the guanidine isothiocyanate method and CsCl gradients (Thakker-Varia et al., 2001). DNAse-treated total RNA was prepared from neurotrophin or control hippocampal cultures and reverse transcribed using gene specific primers. Radioactively labeled probes were then hybridized to Atlas Arrays Rat 1.2 (Clontech, Palo Alto, Calif.) according to manufacturer's protocol. Arrays were performed in duplicate with an independent source of RNA. The hybridization pattern was analyzed on a phosphorimager and normalized to the global hybridization signal. Analysis was performed by Clontech using 1.7-fold change as criteria for significance. All transcriptional changes were confirmed by real time RT-PCR on independent samples (see below).
cDNA (100 μl) was prepared from 2 μg control or BDNF-treated RNA using random primers and Superscript II reverse transcriptase. 25 μl PCR reactions were then carried out using gene specific primers designed by Primer Express software and TaqMan MGB probes (Applied Biosystems 7000 Sequence Detection System, Foster City, Calif.). Duplicate wells were included for each condition and primer pair. Primers specific to the housekeeping gene, glyceraldehyde-3-phosphate dehydrogenase (GAPDH) were used as an internal control. Data analysis was performed according to the protocol provided by Applied Biosystems.

BDNF: neurotrophin, 50 ng/ml, Preprotech; induces synaptic plasticity in hippocampal neurons
Fold Change Arc (3 Hour BDNF Treatment): 34.8 ± 4.3 fold
Fold Change CyclinD1 (3 Hour BDNF Treatment): 3.3 ± 0.5 fold
Fold Change EGR1 (3 Hour BDNF Treatment): 6.6 ± 0.9 fold
Fold Change Fra2 (3 Hour BDNF Treatment): 2.3 ± 0.4 fold
Fold Change Kv + 1.1 (3 Hour BDNF Treatment): 1.4 ± 0.1 fold
Fold Change Na + ch (3 Hour BDNF Treatment): 1.8 ± 0.2 fold
Fold Change PTP1B (3 Hour BDNF Treatment): 1.4 ± 0.1 fold
Fold Change SSTR4 (3 Hour BDNF Treatment): 1.7 ± 0.1 fold
Fold Change SgII (3 Hour BDNF Treatment): 5.1 ± 1.2 fold
Fold Change VGF (3 Hour BDNF Treatment): 6.5 ± 1.5 fold
Fold Change c-fos (3 Hour BDNF Treatment): 2.3 ± 0.4 fold
Fold Change NPY (3 Hour BDNF Treatment, n = 5): 1.9 ± 0.3 fold
Fold Change UNC5H2 (3 Hour BDNF Treatment, n = 5): 2.2 ± 0.6 fold
Fold Change Arc (20 Minute BDNF Treatment): 13.7 ± 5.0 fold
Fold Change EGR1 (20 Minute BDNF Treatment): 4.3 ± 0.8 fold
Fold Change c-fos (20 Minute BDNF Treatment): 2.2 ± 0.4 fold
